pIC50: −log10 of the molar value. “Also recorded” adds a separate entry of the source. Like-named read-outs stand apart in the source and are kept apart here.
Assays:
Assay type in all cases: cell-based
[1] = tested on: mouse Th17 cell differentiation; test: Th17 assay: mouse Th17 polarization (IL-17a producing cells, FACS); conditions: for pIC50: naive mouse CD4 T cells, TGFβ and IL6, compounds added Day 1, analyzed Day 4, read-out: Th 17 IC50
Procedure: (§1) Percentage of DMSO treated IL-17a producing cells was set at 100. Naive mouse CD4 T cells (CD25^−, CD62L^+, and CD44^low-int) were sorted and cultured with CD3/CD28 stimulatory antibodies in the presence of TGFβ (0.1 ng/ml) and IL6 (20 ng/ml). Compounds were added on Day 1 and cells were analyzed on Day 4. For intracellular cytokine staining, cells were incubated for 5 h with phorbol ester (50 ng/ml; Sigma), ionomycin (500 ng/ml; Sigma) and GolgiStop (BD). When needed, surfaces were stained by incubation for 15 min on ice with PECy7-conjugated CD4 (BD Biosciences). The Cytofix/Cytoperm buffer set (BD) was used for intracellular staining. Cells were fixed and made permeable for 30 min on ice and were stained for 30 min on ice in permeabilization buffer with Alexa647-conjugated anti-IL17a (eBioscience) and PE-conjugated anti-IFNg (eBioscience). An LSR II (BD Biosciences) and FlowJo software (Tree Star) were used for flow cytometry. RORg IC50 value acquired from the S2 cell reporter assay is listed for comparison.
as §1, with “With respect to the methodological details pertaining to FIG. 1, naive” for “Percentage of DMSO treated IL-17a producing cells was set at 100. Naive mouse”, “(BD).” for “(BD). When needed, surfaces were stained by incubation for 15 min on ice with PECy7-conjugated CD4 (BD Biosciences).”, “anti-IFNγ” for “anti-IFNg”, “cytometry.” for “cytometry. RORg IC50 value acquired from the S2 cell reporter assay is listed for comparison.”

[2] = tested on: RORγt; test: RORγt overexpression dependent IL17a production in human CD4 T cells (FIG. 3); conditions: FIG. 3, FACS, 0.5 μM
Procedure: (§2) Briefly, CD3+ CD4+ CD45RA+ naive human T cells were isolated from peripheral blood derived from healthy donors. The naive T cells were cultured in XVIVO-20 (Lonza) medium for 7 days in the presence of IL2 and stimulatory CD3 and CD28 antibodies. Cells were infected with lentivirus encoding human RORα or RORγ and compound or DMSO was added on day 2. FACS plot analysis is shown after gating on GFP expressing (virus infected) cells.

[3] = tested on: human Th1 cell differentiation; test: Human Th1 cell differentiation, IFNγ production (counter-screen, FIG. 2); conditions: FIG. 2, FACS, 0.5 μM, naive CD4 T cells, IL12 and IL2
Procedure: (§3) For Th1 differentiation, IL12 (10 ng/ml) and IL2 (100 U/ml) were added to naive CD4 T cell cultures instead of TGFβ and IL6.

[4] = tested on: human Th17 cell differentiation; test: Human Th17 cell differentiation (FACS, FIG. 2); conditions: FIG. 2, FACS, 0.5 μM
Procedure: • 1) S2 cell reporter system: Identified hits from HTS are further screened and their specificity confirmed by testing against RORγ-luc, VP16-luc, RORα-luc, and DHR3-luc reporter S2 cell lines. Compounds either having no activity on VP16, RORα, and DHR3 or having ten times higher IC50 values on such reporters are selected for further tests. • 2) Cytokine induced mouse Th17 cells differentiation. Effects on mouse endogenous RORγt in a relevant physiological setting were determined by testing compounds in the Th17 cell differentiation assay. Compounds having RORγt inhibitory activity are predicted to suppress Th17 cell differentiation. Th1 or regulatory T cell differentiation was used as a counter-screen method to select specific compounds that only affect Th17 cell differentiation without having pleiotrophic effects on general T cell proliferation or cytokine production. • 3) ROR dependent Th17 cell differentiation. Compounds were further tested, by examining their effects on T cells expressing RORα or RORγ. […] Compounds affecting IL17a production or ROR regulatory pathways, however, are expected to inhibit both. • 4) Human Th17 cell differentiation. Compound effects on human RORγt will be tested by treating human cord blood CD4 T cells with select compounds to determine if such compounds alter differentiation into Th17 lineages.
as §3

[5] = tested on: RORα; test: RORα overexpression dependent IL17a production in human CD4 T cells (FIG. 3); conditions: FIG. 3, FACS, 0.5 μM; listed as NCGC00238427
Procedure: as §2

[6] = biological target: T1, RORγt (Mus musculus, UniProt P51450); test: RORγt S2 cell reporter assay (Gal4-RORγt fusion, UAS-luciferase)
T1 construct: expressed in transfected cells; the other entry of the earlier key: GAL4 (P04386, Regulatory protein GAL4)
T1 sequence (P51450 with tags, fused parts or gaps): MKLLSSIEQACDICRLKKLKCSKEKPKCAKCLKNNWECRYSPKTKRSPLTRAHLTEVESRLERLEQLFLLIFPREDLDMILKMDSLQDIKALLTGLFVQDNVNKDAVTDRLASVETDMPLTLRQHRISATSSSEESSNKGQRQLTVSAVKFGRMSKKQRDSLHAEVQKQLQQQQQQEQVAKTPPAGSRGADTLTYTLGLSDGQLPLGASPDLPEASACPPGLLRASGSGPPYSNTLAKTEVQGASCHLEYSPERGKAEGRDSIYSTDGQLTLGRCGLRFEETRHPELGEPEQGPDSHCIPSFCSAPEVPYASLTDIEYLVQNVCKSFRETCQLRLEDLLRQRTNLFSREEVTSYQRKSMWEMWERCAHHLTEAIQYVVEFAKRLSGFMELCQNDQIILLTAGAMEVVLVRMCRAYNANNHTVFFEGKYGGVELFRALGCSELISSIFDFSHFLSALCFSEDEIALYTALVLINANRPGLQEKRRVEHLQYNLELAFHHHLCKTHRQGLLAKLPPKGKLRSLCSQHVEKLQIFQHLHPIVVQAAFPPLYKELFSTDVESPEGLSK
Text: Methods: The Drosophila S2 cell line was originally purchased from Invitrogen and was maintained in Schneider's medium supplemented with 10% heat-inactivated bovine fetal calf serum and antibiotics (Invitrogen). […] The resulting chimeric gene was subcloned into the copper inducible pMT/V5-His A vector (available from Invitrogen).
Renilla luciferase construct under the polIII promoter was obtained from Dr. Dasgupta's laboratory (NYU medical center). In order to generate stable cell lines, cells were co-transfected with pMT-G4DBD-RORγt, pMT-G4DBD-RORα, pMT-G4DBD-DHR3, or pMT-G4DBDVP16 and pHygro plasmids (Invitrogen) and screened for resistant colonies in the presence of hygromycin (0.3 mg/mL). […] Using similar methods, stable clones with genomic integration of the luciferase reporters and other reporters were generated such as pMT-RORα_luc, pMT-DHR3_luc, or pMT-VP16_luc.
Methods: 600 G4DBD-RORγ/γt-luc reporter (#25) or G4DBD-VP16-luc reporter cells were distributed into each well of 1,536-well white bottom plates in 4 μl S2 cell culture volume containing hygromicin (300 μg/ml) and puromycin (2 μg/ml). […] After one-hour incubation, 1 of culture medium solution containing copper sulfate (to final 0.7 mM) and 10 μM RORγ/γt antagonists were added to each well. After 20-hour incubation at ambient temperature, 1.5 μl firefly luciferase detection mix was added and the luciferase activities were measured in 10 min. ViewLux luminometers were used for measuring luciferase signal.
A cell-based reporter assay was used to detect RORγt-mediated activity. This assay, called RORγt employed Drosophila Schneider cells that were stably transfected with two vectors: a gene expressing a fusion of the Gal4 DNA binding domain and RORγt transactivation domain under the control of the metallothionine promoter and a Photinus luciferase reporter regulated by the Gal4 binding site enhancer, UAS. […] Cells (600/well) were dispensed into white solid 1536-well plates (Greiner) using a solenoid-based dispenser. Following transfer of […] compound or DMSO vehicle by a pin tool, the plates were incubated 1 hr at ambient temperature, and 1 uL/well copper sulfate (700 uM final concentration) was added. The plates were centrifuged 15 s at 1000 RPM and incubated 20 hr at ambient temperature. After addition of 1.5 uL Photinus luciferase detection reagent, the plates were incubated 10 min at ambient temperature and then read by a ViewLux (Perkin Elmer) to detect luminescence. […] Efficacy is expressed as % of the maximal response of control inhibitor (Digoxin), set at 100%.

Emax ([6]; Table 1, % of the maximal response of control inhibitor (Digoxin), set at 100%, read-out: Efficacy (%)) [%]	pIC50 ([6]; Table 1, Drosophila S2 cells, luciferase reporter, read-out: IC50)	pIC50 ([6]; Table 2, from the S2 cell reporter assay, listed for comparison, read-out: S2 cell RORg IC50)	SMILES	mouse Th17 cell differentiation, as measured by IL17a production ([1]; FIG. 1, FACS, at the indicated concentrations)	pIC50 [1]	RORγt overexpression dependent IL17a production in human CD4 T cells ([2]; listed as NCGC00238427)	Th1 cell differentiation, as measured by IFNγ production ([3]; listed as NCGC00238427)	human Th17 cell differentiation ([4]; listed as NCGC00238427)	RORα overexpression dependent IL17a production in human CD4 T cells [5]	RORγt overexpression dependent IL17a production in human CD4 T cells [2]	Th1 cell differentiation, as measured by IFNγ production [3]	human Th17 cell differentiation [4]
			COc1cc(O)c(C(CC(=O)N2CC(C)CC(C)C2)c2ccc3c(c2)OCO3)c(OC)c1 (stereo not shown) [RC1, reference compound]	suppress mouse Th17 cell differentiation	5.00 to 6.00	selectively inhibit RORγt dependent; also recorded: selectively inhibits RORγt overexpression dependent IL17a production	does not inhibit Th1 cell differentiation	selectively suppress human Th17; also recorded: selectively suppresses human Th17 cell differentiation	unaffected			
88.7	5.00 to 6.00	5.00 to 6.00	COc1cc(O)c(C(CC(=O)N2CC(C)CC(C)C2)c2cccc(C(=O)O)c2)c(OC)c1 (stereo not shown) [Compound 101, 3-(3-(3,5-Dimethylpiperidin-1-yl)-1-(2-hydroxy-4,6-dimethoxyphenyl)-3-oxopropyl)benzoic acid]		< 4.70					neither of which exhibits the ability to inhibit RORγt dependent human Th17 cell differentiation	neither of which exhibits the ability to suppress human Th17 or Th1 cell differentiation	neither of which exhibits the ability to suppress human Th17 or Th1 cell differentiation
